According to ChEMBL document CHEMBL1201862, “PubChem BioAssay data set” (2004):
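Values below derive from 48-hour exposures of cells grown in 96-well plates, with endpoints linearly interpolated between the two concentrations bracketing the appropriate inhibition level. The concentration for 50% growth inhibition is given as GI50.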 Activity calls are given as the source filed them. Rule as the data show it: active = GI50 up to about 1.1 µM and inactive = higher.

Experiments:
Test in all cases: inhibition of tumour cell growth, NCI panel, 48 h
SF-268 = test system: SF-268
IGROV-1 = test system: IGROV-1
SF-295 = test system: SF-295
UO-31 = test system: UO-31
NCI-H522 = test system: NCI-H522
HCC 2998 = test system: HCC 2998
786-0 = test system: 786-0
CCRF-CEM = test system: CCRF-CEM
A549 = test system: A549
A498 = test system: A498
OVCAR-4 = test system: OVCAR-4
OVCAR-3 = test system: OVCAR-3
KM12 = test system: KM12
CAKI-1 = test system: CAKI-1
BT-549 = test system: BT-549
NCI-H23 = test system: NCI-H23
SNB-75 = test system: SNB-75
MOLT-4 = test system: MOLT-4
SN12C = test system: SN12C
SF-539 = test system: SF-539

Row | Structure (SMILES) | GI50 (SF-268) | GI50 (IGROV-1) | GI50 (SF-295) | GI50 (UO-31) | GI50 (NCI-H522) | GI50 (HCC 2998) | GI50 (786-0) | GI50 (CCRF-CEM) | GI50 (A549) | GI50 (A498) | GI50 (OVCAR-4) | GI50 (OVCAR-3) | GI50 (KM12) | GI50 (CAKI-1) | GI50 (BT-549) | GI50 (NCI-H23) | GI50 (SNB-75) | GI50 (MOLT-4) | GI50 (SN12C) | GI50 (SF-539)
1 | CN(CCNC(=O)c1nn(-c2ccccc2)c2c1Cc1ccccc1-2)CCNC(=O)c1nn(-c2ccccc2)c2c1Cc1ccccc1-2 | 2.02 µM (inactive) | 1.67 µM (inactive) | 1.81 µM (inactive) | 1.63 µM (inactive) | 1.57 µM (inactive) | 1.74 µM (inactive) | 1.66 µM (inactive) | 1.77 µM (inactive) | 2.06 µM (inactive) | 1.84 µM (inactive) | 1.82 µM (inactive) | 1.68 µM (inactive) | 1.79 µM (inactive) | 2.53 µM (inactive) | 4.06 µM (inactive) | 1.87 µM (inactive) | 1.69 µM (inactive) | 3.65 µM (inactive) | 1.83 µM (inactive) | 2.17 µM (inactive)
2 | O=C1c2c(F)c(F)c(F)c(F)c2SC2=Nc3cccc4cccc(c34)N12 | 3.61 µM (inactive) | 11.4 µM (inactive) | 14.5 µM (inactive) | 9.16 µM (inactive) | 2.54 µM (inactive) | 13.9 µM (inactive) | 5.51 µM (inactive) | 3.31 µM (inactive) | 18.5 µM (inactive) | 18.5 µM (inactive) | 3.49 µM (inactive) | 3.21 µM (inactive) | 3.05 µM (inactive) | 14.9 µM (inactive) | 10.9 µM (inactive) | 3.88 µM (inactive) | 12.1 µM (inactive) | 2.16 µM (inactive) | 3.79 µM (inactive) | 6.18 µM (inactive)
3 | Cc1ccc(C)c2c1C/C(=C\c1ccccc1C(=O)O)C2=O | 89.3 µM (inactive) | > 100 µM (inactive) | > 100 µM (inactive) | > 100 µM (inactive) | > 100 µM (inactive) | > 100 µM (inactive) | > 100 µM (inactive) | 55.6 µM (inactive) | 90.8 µM (inactive) | > 100 µM (inactive) | 62.7 µM (inactive) | 54.2 µM (inactive) | > 100 µM (inactive) | > 100 µM (inactive) | > 100 µM (inactive) | > 100 µM (inactive) | > 100 µM (inactive) | 86.9 µM (inactive) | > 100 µM (inactive) | 18.5 µM (inactive)
4 | Cc1cccc(-c2cc(O)c3ccc(C)nc3n2)c1 | 0.723 µM (active) | 0.601 µM (active) | 0.278 µM (active) | 3.77 µM (inactive) | 0.194 µM (active) | 1.07 µM (active) | 0.43 µM (active) | 0.354 µM (active) | 0.508 µM (active) | 0.644 µM (active) | 10 µM (inactive) | 0.188 µM (active) | 0.12 µM (active) | 0.256 µM (active) | 0.435 µM (active) | 0.643 µM (active) | 0.233 µM (active) | 0.421 µM (active) | 0.668 µM (active) | 0.338 µM (active)
5 | Cc1c(Cl)c(C)c(Cl)c(O)c1Cl | 26.7 µM (inactive) | 44.3 µM (inactive) | 24.8 µM (inactive) | 17.4 µM (inactive) | 17.9 µM (inactive) | 19.8 µM (inactive) | 43.3 µM (inactive) | 33.7 µM (inactive) | 21.2 µM (inactive) | 19 µM (inactive) | 26 µM (inactive) | 19.5 µM (inactive) | 26.3 µM (inactive) | 21.4 µM (inactive) | 24.3 µM (inactive) | 28.1 µM (inactive) | 23.9 µM (inactive) | 17.1 µM (inactive) | 24.2 µM (inactive) | 29 µM (inactive)
6 | C[C@]12CC/C(=N\OCCN3CCCC3)C=C1CCC1C2CC[C@@]2(C)C1CC[C@]2(C)O (stereo not given in full) | 13.3 µM (inactive) | 8.95 µM (inactive) | 3.35 µM (inactive) | 11.7 µM (inactive) | 3.12 µM (inactive) | 11.8 µM (inactive) | 4.43 µM (inactive) | 3.56 µM (inactive) | 11.5 µM (inactive) | 0.647 µM (active) | 16.1 µM (inactive) | 8.39 µM (inactive) | 5.09 µM (inactive) | 7.43 µM (inactive) | 10.2 µM (inactive) | 12.2 µM (inactive) | 2.3 µM (inactive) | 3.74 µM (inactive) | 7.13 µM (inactive) | 6.62 µM (inactive)
